What was measured:
C. albicans ATCC 10231 = experiment: Checkerboard synergy with antifungal drugs; format: cell-based, Candida albicans
Protocol: According to the consensus interpretation of FICI values, FICI≤0.5 is interpreted as ‘synergy’. […] Inoculum and compound solutions were prepared as described for antifungal susceptibility testing. Fractional inhibitory concentrations (FIC) were calculated as follows: FIC of compound=MIC of compound combined with antifungal/MIC compound alone, and FIC antifungal=MIC of antifungal combined with compound/MIC of antifungal alone. The FIC index (FICI) was calculated as the sum of each FIC and interpreted as follows: FICI≤0.5, ‘synergy’; 0.5<FICI≤4, ‘no interaction’; FICI>4, ‘antagonism’. At least three independent experiments were performed and mean FICI was calculated.

E. coli ATCC 25922 = experiment: Membrane integrity, propidium iodide influx assay (SYTO 9/PI); format: cell-based, Escherichia coli
Protocol: The influx of PI in E. coli ATCC 25922 treated with 2×MIC, MIC, and ½×MIC of compound 1 was evaluated using a commercial kit that includes fluorescent nucleic acid stains SYTO® 9 and PI. SYTO® 9 can enter cells with intact or damaged membranes, generally labeling both, whereas PI only penetrates cells with severe membrane lesions, causing a reduction in SYTO® 9 fluorescence when both dyes are present.
In these assays, COL and AMP were used as controls. COL is a polycationic antimicrobial peptide with a complex mode of action, that ultimately solubilizes the bacterial cell membrane. AMP is an aminopenicillin that inhibits cell wall synthesis by inhibiting penicillin-binding proteins. E. coli ATCC 25922 cells were treated with compound 1 and, at several time-points (0, 1, and 18 h), samples were taken, and SYTO® 9/PI ratio was determined ([FIG. 4]). The entrance of PI is reflected in a reduction of this ratio.
Briefly, E. coli ATCC 25922 colonies from overnight cultures in MHA were suspended in CAMHB to prepare an inoculum with a final concentration of approximately 5×10^5 CFU/mL. The tubes were incubated overnight at 36° C. in a water bath with shaking. Following this, the cell suspensions were centrifuged at 3500 rpm for 15 min, the supernatant was removed, the cells were carefully resuspended in fresh CAMHB and the suspension was adjusted to 0.5 McFarland. An aliquot of this suspension was then added to each tube of CAMHB alone (control) or CAMHB plus an appropriate amount of test compound. […] The tubes were incubated at 36 degrees C. in a water bath with shaking and, at pre-established time points (0, 1, and 18 h), […] aliquots were retrieved for further analysis. After the exposure time, cells were washed two times, resuspended in 0.85% NaCl, and 100 μL of each cell suspension was distributed in the wells of a microtiter plate, in triplicate. 100 μL of a mixture of 30 μM PI and 5 μM SYTO® 9 prepared in ultrapure water were added to each well, and the plates were incubated at room temperature, in the dark, for 15 min. The fluorescence intensity of the stained bacterial suspensions was determined using a microplate reader (Synergy HT, BioTek Instruments, Winooski, VT, USA) by two consecutive measurements with excitation wavelength 485 nm and emission wavelength 528 nm (SYTO® 9) or 590 nm (PI). Data were analyzed by subtracting background fluorescence from each sample, dividing the fluorescence intensity of SYTO® 9 by fluorescence intensity of PI, and the results are presented as a percentage of control. Three independent assays were performed in triplicate for each experimental condition.

P. aeruginosa ATCC 27853 = experiment: Bacterial biofilm formation inhibition (crystal violet); format: cell-based, Pseudomonas aeruginosa; conditions: 2×MIC and MIC, 24 h
Protocol: (§1) In an embodiment, the antibiofilm activity of compound 1 was performed as follows. Given its bactericidal effect, the impact of compound 1 on the biofilm formation of reference strains was studied.
(§2) The effect of compound 1 on bacterial biofilm formation was evaluated through quantification of total biomass, using the crystal violet method, as previously described ([FIG. 6]). […] A control with an appropriate concentration of DMSO, as well as a negative control (TSB alone) was included. Sterile 96-well flat-bottomed untreated polystyrene microtiter plates were used. After a 24 h incubation at 37 degrees C., the biofilms were heat-fixed for 1 h at 60 degrees C. and stained with 0.5% (v/v) crystal violet (Quimica Clinica Aplicada, Amposta, Spain) for 5 min. The stain was resolubilized with 33% (v/v) acetic acid (Acetic acid 100%, AppliChem, Darmstadt, Germany) and the biofilm biomass was quantified by measuring the absorbance of each sample at 570 nm in a microplate reader (Thermo Scientific Multiskan® EX, Thermo Fisher Scientific, Waltham, MA, USA). The background absorbance (TSB or TSB+1% glucose without inoculum) was subtracted from the absorbance of each sample and the data are presented as a percentage of control. Three independent assays were performed for reference strains, with triplicates for each experimental condition.

S. aureus ATCC 29213 = experiment: as above; format: cell-based, Staphylococcus aureus; conditions: 2×MIC and MIC, 24 h
Protocol: as §1, §2

E. coli 2252 = experiment: Checkerboard synergy with COL; format: cell-based, Escherichia coli
Protocol: The combined effect of compound 1 and CTX for E. coli SA/2, VAN for E. faecalis B3/101, COL for E. coli 2252, erythromycin for E. coli ATCC 25922, and OXA for S. aureus 66/1 was evaluated by the checkerboard method. […] The interaction between compound 1 and erythromycin was assessed for E. coli ATCC 25922. Gram-negative bacteria are intrinsically resistant to erythromycin, a macrolide that inhibits protein synthesis, and cannot penetrate the outer membrane of Gram-negative bacteria, which is impermeable to hydrophobic antibiotics. Ascertain ceragenins have been previously described to be able to enhance the efficacy of such antibiotics, this possibility was investigated for compound 1 and a FICI of 0.6 was obtained.

E. faecalis ATCC 29212 = experiment: Bacterial biofilm formation inhibition (crystal violet); format: cell-based, Enterococcus faecalis
Protocol: as §1, §2

SMILES: C[C@H](CCC(=O)NCCN)[C@H]1CC[C@H]2[C@@H]3CC[C@@H]4C[C@H](O)CC[C@]4(C)[C@H]3C[C@H](O)[C@]12C [Compound 1, (R)—N-(2-aminoethyl)-4-((3R,5R,8R,9S,10S,12S,13R,14S,17R)-3,12-dihydroxy-10,13-dimethylhexadecahydro-1H-cyclopenta[a]phenanthren-17-yl) pentanamida]
- effect on trailing caused by fluconazole at its MIC (in words) (C. albicans ATCC 10231; 16 μg/mL of compound 1 (¼×MIC), fluconazole 2 μg/mL): eliminated trailing
- fractional inhibitory concentration index (FICI) (C. albicans ATCC 10231; with amphotericin B): ≤ 0.5
- fractional inhibitory concentration index (FICI) (C. albicans ATCC 10231; with fluconazole): ≤ 0.5
- reduction in SYTO 9/PI ratio vs untreated control (E. coli ATCC 25922; 32 μg/mL (MIC), after 1 and 18 h): significant
- reduction in SYTO 9/PI ratio vs untreated control (E. coli ATCC 25922; 64 μg/mL (2×MIC, MBC), 0, 1, 18 h): significant at all time points
- biofilm formation (in words) (P. aeruginosa ATCC 27853): significantly inhibited
- biofilm formation (in words) (S. aureus ATCC 29213): significantly inhibited
- combined effect with COL (in words) (E. coli 2252; checkerboard, E. coli 2252): No synergistic interactions
- fractional inhibitory concentration index (FICI) (E. coli 2252; with COL, E. coli 2252 (mcr-1)): 0.6
- biofilm formation (in words) (E. faecalis ATCC 29212; 2×MIC and MIC, 24 h): significantly inhibited
- minimal biofilm inhibitory concentration (MBIC) (E. faecalis ATCC 29212; 80% reduction of biofilm formation, E. faecalis ATCC 29212): < 4 µg/mL

Reference: patent US20250002450A1, “CATIONIC STEROID COMPOUNDS, METHOD OF OBTAINING THEREOF, FORMULATIONS COMPRISING THEREOF AND THEIR USES” (UNIVERSIDADE DO PORTO, priority 2021, published 2025)
